# Key:
# Format in all cases: functional
# Staphylococcus aureus = assay: Antibacterial activity against Staphylococcus aureus MTCC 7443 after 24 hr by serial dilution method
# Aspergillus niger = assay: Antifungal activity against Aspergillus niger MTCC 282 after 120 hr by serial dilution method
# Candida albicans = assay: Antifungal activity against Candida albicans MTCC 183 after 48 hr by serial dilution method
# Escherichia coli = assay: Antibacterial activity against Escherichia coli MTCC 42 after 24 hr by serial dilution method
# Bacillus subtilis = assay: Antibacterial activity against Bacillus subtilis MTCC 441 after 24 hr by serial dilution method
compound,measurement,setting,value
C/C(=N\Nc1nc(-c2ccccc2)cs1)c1c(O)cc(C)oc1=O,-logMIC,Staphylococcus aureus,1.737
same,-logMIC,Aspergillus niger,1.435
same,-logMIC,Candida albicans,1.435
same,-logMIC,Escherichia coli,1.435
same,-logMIC,Bacillus subtilis,1.435
C/C(=N\Nc1nc(-c2ccc(C)cc2)cs1)c1c(O)cc(C)oc1=O,-logMIC,Staphylococcus aureus,1.453
same,-logMIC,Aspergillus niger,1.435
same,-logMIC,Candida albicans,1.152
same,-logMIC,Escherichia coli,1.453
same,-logMIC,Bacillus subtilis,1.453
COc1ccc(-c2csc(N/N=C(\C)c3c(O)cc(C)oc3=O)n2)cc1,-logMIC,Staphylococcus aureus,1.472
same,-logMIC,Aspergillus niger,1.472
same,-logMIC,Candida albicans,1.171
same,-logMIC,Escherichia coli,1.472
same,-logMIC,Bacillus subtilis,1.171
C/C(=N\Nc1nc(-c2ccc(Cl)cc2)cs1)c1c(O)cc(C)oc1=O,-logMIC,Staphylococcus aureus,1.478
same,-logMIC,Aspergillus niger,1.478
same,-logMIC,Candida albicans,1.478
same,-logMIC,Escherichia coli,1.478
same,-logMIC,Bacillus subtilis,1.478
CC(=O)CC(=O)c1c(C)[nH]n(-c2nc(-c3ccccc3)cs2)c1=O,-logMIC,Staphylococcus aureus,1.435
same,-logMIC,Aspergillus niger,1.435
same,-logMIC,Candida albicans,1.435
same,-logMIC,Escherichia coli,1.435
same,-logMIC,Bacillus subtilis,1.435
COc1ccc(-c2csc(-n3[nH]c(C)c(-c4cc(C)no4)c3=O)n2)cc1,-logMIC,Staphylococcus aureus,1.771
same,-logMIC,Aspergillus niger,1.771
same,-logMIC,Candida albicans,1.47
same,-logMIC,Escherichia coli,1.47
same,-logMIC,Bacillus subtilis,1.771
Cc1cc(-c2c(C)[nH]n(-c3nc(-c4ccc(Cl)cc4)cs3)c2=O)on1,-logMIC,Staphylococcus aureus,2.077
same,-logMIC,Aspergillus niger,1.474
same,-logMIC,Candida albicans,1.477
same,-logMIC,Escherichia coli,1.775
same,-logMIC,Bacillus subtilis,1.775
Cc1cc(-c2c(C)[nH]n(-c3nc(-c4ccccc4)cs3)c2=O)on1,-logMIC,Staphylococcus aureus,1.733
same,-logMIC,Aspergillus niger,1.432
same,-logMIC,Candida albicans,1.432
same,-logMIC,Escherichia coli,1.733
same,-logMIC,Bacillus subtilis,1.733
Cc1ccc(-c2csc(-n3[nH]c(C)c(-c4cc(C)no4)c3=O)n2)cc1,-logMIC,Staphylococcus aureus,1.75
same,-logMIC,Aspergillus niger,1.75
same,-logMIC,Candida albicans,1.449
same,-logMIC,Escherichia coli,1.75
same,-logMIC,Bacillus subtilis,1.75
OC(Cn1cncn1)(Cn1cncn1)c1ccc(F)cc1F [FLUCONAZOLE],-logMIC,Aspergillus niger,3
same,-logMIC,Candida albicans,3
CCn1cc(C(=O)O)c(=O)c2cc(F)c(N3CCNCC3)cc21 [NORFLOXACIN],-logMIC,Staphylococcus aureus,2.698
same,-logMIC,Escherichia coli,2.698
same,-logMIC,Bacillus subtilis,2.698
